In PubChem BioAssay (NCI):
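Five concentrations, 48 hours, 96-well plates. At the TGI there is no net growth.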

Legend:
Test in all cases: NCI tumour cell line growth inhibition, 48 h
LOX IMVI melanoma = test system: LOX IMVI melanoma
SF-539 CNS = test system: SF-539 CNS
HCC-2998 colon = test system: HCC-2998 colon
NCI-H522 lung = test system: NCI-H522 lung
CCRF-CEM leukemia = test system: CCRF-CEM leukemia
MALME-3M melanoma = test system: MALME-3M melanoma
U251 CNS = test system: U251 CNS
RXF 393 renal = test system: RXF 393 renal
MDA-N = test system: MDA-N
TK-10 renal = test system: TK-10 renal
DU-145 prostate = test system: DU-145 prostate
IGROV1 ovarian = test system: IGROV1 ovarian
UO-31 renal = test system: UO-31 renal
NCI-H23 lung = test system: NCI-H23 lung
HCT-116 colon = test system: HCT-116 colon
K-562 leukemia = test system: K-562 leukemia
NCI-H460 lung = test system: NCI-H460 lung
MDA-MB-435 = test system: MDA-MB-435
M14 melanoma = test system: M14 melanoma
BT-549 breast = test system: BT-549 breast
SF-295 CNS = test system: SF-295 CNS
SNB-75 CNS = test system: SNB-75 CNS
SF-268 CNS = test system: SF-268 CNS
SK-MEL-5 melanoma = test system: SK-MEL-5 melanoma
ACHN renal = test system: ACHN renal
CAKI-1 renal = test system: CAKI-1 renal
SW-620 colon = test system: SW-620 colon
UACC-257 melanoma = test system: UACC-257 melanoma
UACC-62 melanoma = test system: UACC-62 melanoma
OVCAR-4 ovarian = test system: OVCAR-4 ovarian
EKVX NSCLC = test system: EKVX NSCLC
HOP-92 NSCLC = test system: HOP-92 NSCLC
MDA-MB-231 breast = test system: MDA-MB-231 breast
SK-MEL-28 melanoma = test system: SK-MEL-28 melanoma
SNB-19 CNS = test system: SNB-19 CNS
HT29 colon = test system: HT29 colon
786-0 renal = test system: 786-0 renal
RPMI-8226 leukemia = test system: RPMI-8226 leukemia
KM12 colon = test system: KM12 colon
OVCAR-3 ovarian = test system: OVCAR-3 ovarian
COLO 205 colon = test system: COLO 205 colon
HL-60(TB) leukemia = test system: HL-60(TB) leukemia
NCI/ADR-RES ovarian = test system: NCI/ADR-RES ovarian
HS 578T breast = test system: HS 578T breast
PC-3 prostate = test system: PC-3 prostate
A549 NSCLC = test system: A549 NSCLC
SN12C renal = test system: SN12C renal
MCF7 breast = test system: MCF7 breast
HOP-62 NSCLC = test system: HOP-62 NSCLC
A498 renal = test system: A498 renal
NCI-H226 lung = test system: NCI-H226 lung
SK-OV-3 ovarian = test system: SK-OV-3 ovarian
HCT-15 colon = test system: HCT-15 colon
SK-MEL-2 melanoma = test system: SK-MEL-2 melanoma
SR leukemia = test system: SR leukemia
MOLT-4 leukemia = test system: MOLT-4 leukemia
OVCAR-8 ovarian = test system: OVCAR-8 ovarian
OVCAR-5 ovarian = test system: OVCAR-5 ovarian

`CCOC(=O)C1=C(Cl)c2cccnc2C1=O` was tested, and the TGI (LOX IMVI melanoma) was 72.7 µM, the TGI (SF-539 CNS) was > 100 µM and the TGI (HCC-2998 colon) was > 100 µM. For the same molecule, the TGI (NCI-H522 lung) was > 100 µM, the TGI (CCRF-CEM leukemia) was > 100 µM and the TGI (MALME-3M melanoma) was > 100 µM. For the same molecule, the TGI (U251 CNS) was > 100 µM, the TGI (RXF 393 renal) was > 100 µM and the TGI (MDA-N) was > 100 µM. The TGI (TK-10 renal) was > 100 µM, the TGI (DU-145 prostate) was 55.6 µM and the TGI (IGROV1 ovarian) was > 100 µM. For the same molecule, the TGI (UO-31 renal) was > 100 µM, the TGI (NCI-H23 lung) was 31.6 µM and the TGI (HCT-116 colon) was > 100 µM. The TGI (K-562 leukemia) was > 100 µM, the TGI (NCI-H460 lung) was > 100 µM and the TGI (MDA-MB-435) was 64.7 µM. For the same molecule, the TGI (M14 melanoma) was > 100 µM, the TGI (BT-549 breast) was > 100 µM and the TGI (SF-295 CNS) was > 100 µM. The TGI (SNB-75 CNS) was 88.3 µM, the TGI (SF-268 CNS) was > 100 µM and the TGI (SK-MEL-5 melanoma) was > 100 µM. For the same molecule, the TGI (ACHN renal) was > 100 µM, the TGI (CAKI-1 renal) was > 100 µM and the TGI (SW-620 colon) was > 100 µM. For the same molecule, the TGI (UACC-257 melanoma) was > 100 µM, the TGI (UACC-62 melanoma) was > 100 µM and the TGI (OVCAR-4 ovarian) was > 100 µM. For the same molecule, the TGI (EKVX NSCLC) was > 100 µM, the TGI (HOP-92 NSCLC) was > 100 µM and the TGI (MDA-MB-231 breast) was > 100 µM. For the same molecule, the TGI (SK-MEL-28 melanoma) was > 100 µM, the TGI (SNB-19 CNS) was > 100 µM and the TGI (HT29 colon) was > 100 µM. For the same molecule, the TGI (786-0 renal) was > 100 µM, the TGI (RPMI-8226 leukemia) was > 100 µM and the TGI (KM12 colon) was > 100 µM. The TGI (OVCAR-3 ovarian) was 43.7 µM, the TGI (COLO 205 colon) was > 100 µM and the TGI (HL-60(TB) leukemia) was > 100 µM. The TGI (NCI/ADR-RES ovarian) was > 100 µM, the TGI (HS 578T breast) was 77 µM and the TGI (PC-3 prostate) was > 100 µM. The TGI (A549 NSCLC) was > 100 µM, the TGI (SN12C renal) was > 100 µM and the TGI (MCF7 breast) was > 100 µM. For the same molecule, the TGI (HOP-62 NSCLC) was > 100 µM, the TGI (A498 renal) was > 100 µM and the TGI (NCI-H226 lung) was > 100 µM. For the same molecule, the TGI (SK-OV-3 ovarian) was > 100 µM, the TGI (HCT-15 colon) was > 100 µM and the TGI (SK-MEL-2 melanoma) was > 100 µM. The TGI (SR leukemia) was 37.9 µM and the TGI (MOLT-4 leukemia) was > 100 µM.

In the case of `CC(=O)Nc1ccc(S(=O)(=O)Nc2nc(-c3ccc(Cl)cc3)cc(N3N=C(c4ccc(Br)cc4)CC3c3ccccc3)n2)cc1` (stereo not drawn), the TGI (LOX IMVI melanoma) was 29.5 µM, the TGI (SF-539 CNS) was 31.1 µM and the TGI (NCI-H522 lung) was 31 µM. The TGI (CCRF-CEM leukemia) was 90.3 µM, the TGI (MALME-3M melanoma) was 40.7 µM and the TGI (OVCAR-8 ovarian) was 33.3 µM. For the same molecule, the TGI (U251 CNS) was 32.1 µM, the TGI (RXF 393 renal) was 39.7 µM and the TGI (MDA-N) was 29.8 µM. For the same molecule, the TGI (TK-10 renal) was 33.5 µM, the TGI (DU-145 prostate) was 62.4 µM and the TGI (IGROV1 ovarian) was 24.1 µM. It also gave a TGI (UO-31 renal) of 30.5 µM, a TGI (NCI-H23 lung) of 41.2 µM and a TGI (HCT-116 colon) of 42.7 µM. For the same molecule, the TGI (K-562 leukemia) was 23.3 µM, the TGI (NCI-H460 lung) was 44.3 µM and the TGI (MDA-MB-435) was 19.6 µM. The TGI (M14 melanoma) was 43 µM, the TGI (BT-549 breast) was 34 µM and the TGI (SF-295 CNS) was 31.5 µM. The TGI (ACHN renal) was 58.3 µM, the TGI (SW-620 colon) was 52.5 µM and the TGI (UACC-257 melanoma) was 37.3 µM. The TGI (UACC-62 melanoma) was 25.2 µM, the TGI (OVCAR-4 ovarian) was 30 µM and the TGI (EKVX NSCLC) was 26.5 µM. It also gave a TGI (HOP-92 NSCLC) of 32.4 µM, a TGI (MDA-MB-231 breast) of 28.6 µM and a TGI (SK-MEL-28 melanoma) of 35.1 µM. For the same molecule, the TGI (SNB-19 CNS) was 33.8 µM, the TGI (HT29 colon) was 28.3 µM and the TGI (786-0 renal) was 44 µM. For the same molecule, the TGI (RPMI-8226 leukemia) was 37.5 µM, the TGI (KM12 colon) was 40.4 µM and the TGI (OVCAR-3 ovarian) was 8.46 µM. It also gave a TGI (COLO 205 colon) of 27.1 µM, a TGI (HL-60(TB) leukemia) of 38.1 µM and a TGI (NCI/ADR-RES ovarian) of 34.4 µM. It also gave a TGI (HS 578T breast) of 31 µM, a TGI (PC-3 prostate) of 36.1 µM and a TGI (A549 NSCLC) of 31.5 µM. For the same molecule, the TGI (OVCAR-5 ovarian) was 27.8 µM, the TGI (SN12C renal) was 32.3 µM and the TGI (MCF7 breast) was 16.6 µM. It also gave a TGI (HOP-62 NSCLC) of 35.3 µM, a TGI (NCI-H226 lung) of 31.8 µM and a TGI (SK-OV-3 ovarian) of 29.9 µM. For the same molecule, the TGI (HCT-15 colon) was 31.9 µM, the TGI (SK-MEL-2 melanoma) was 30.5 µM and the TGI (SR leukemia) was 56.6 µM. The TGI (MOLT-4 leukemia) was 39.5 µM.
